Like-named read-outs stand apart in the source and are kept apart here.
Tested on: iCell cardiomyocytes (human iPSC-derived cardiomyocytes)
Experiment: High-content imaging of cytotoxicity and mitochondrial integrity in iPSC-CMs
Assay type: cell-based
Conditions: Homo sapiens; for viability at 0.01 µM / activity at 0.01 µM / viability at 0.1 µM / activity at 0.1 µM / viability at 1 µM / activity at 1 µM / viability at 10 µM / activity at 10 µM / viability at 100 µM / activity at 100 µM: 0.00 µM = 100.00; for viability at 0.1 µM / activity at 0.1 µM: 0.10 µM
Method: Details on cardiomyocyte cell culture are described in detail elsewhere ([Grimm et al. 2015b]; [Sirenko et al. 2013a]). Briefly, tissue-culture treated 384 well plates were gelatinized with 25μL per well of 0.1% (w/v) gelatin in water for 2 h at 37°C and 5% CO2 . Individual vials of cells were thawed for 4 min in a water bath maintained at 37°C. Thawed cells were resuspended in 10ml plating medium containing 1:500 (vol/vol) penicillin/streptomycin solution at room temperature (RT). Live cell counts for each cell suspension were determined by trypan blue staining and cells were further diluted to provide final cell densities of 2×10^5 viable cells/ml. Thus, 5,000 cells suspended in 25μL media were transferred per well after the gelatin solution had been discarded. Cell culture plates were rested for 30 min at RT before they were incubated for 48 h at 37°C and 5% CO2 . Then, a media exchange with 30μL of fresh maintenance medium containing 1:500 (vol/vol) penicillin/streptomycin solution was performed, and cell media were subsequently changed every 48 h for 12 d. On the experiment day, the medium was completely exchanged with either 25μL (for Ca^2+ flux assay) or 40μL (for imaging) of fresh medium.
Cytotoxicity and effects on mitochondrial integrity of various PCBs and PCB metabolites in induced pluripotent stem cell-CMs (iPSC-CMs) were assessed using high-content cellular imaging in ImageXpress® Micro Confocal (Molecular Devices) as detailed in ([Grimm et al. 2015b]). Cells in 40μL maintenance media were treated with 10μL of 5× chemical solutions to provide test chemicals at final assay concentrations ranging from 0.01 to 100μM . […] Next, sample wells were treated with 50μL equilibrated 2× concentrated staining solution (maintenance medium containing Hoechst 33342, 4μg/mL and MitoTracker™ Orange, 0.4μM ). Microplates were then incubated for 15 min at 37°C and 5% CO2 before cells were washed twice with 30μL maintenance medium. All media were aspirated and discarded, and cells were fixed with […] of a 3.7% formaldehyde solution for 15 min at 37°C and 5% […] . Fixed cells were washed 3× with 25μL PBS before image acquisition using the DAPI (Hoechst 33342) and Cy3 (MitoTracker™ Orange) filters at 10× magnification on the ImageXpress® Micro Confocal high-content confocal microscope (Molecular Devices). The multiwavelength cell scoring applications module in MetaXpress® was used to analyze acquired images.
Phenotypic responses were quantitatively assessed using concentration–response modeling as detailed elsewhere ([Sirenko et al. 2017]). Briefly, phenotypic readouts were normalized to vehicle controls and fit to a four-parameter logistic model in R studio software (version 3.1.1; R Development Core Team). Following EPA guidance on dose–response modeling, a cutoff of one standard deviation across means of vehicle control (i.e., 0.5% vol/vol DMSO in cell culture media) wells was applied to determine the point-of-departure (POD) values ([U.S. EPA 2012]). In the absence of a concentration–response, the highest tested concentration (i.e., 100μM ) was assigned as “no observable adverse effect level.” The concentration–response assessment R script, as well as templates for vehicle and concentration–response data, are available as a supplement to Sirenko et al. ([2017]). The ability of physicochemical properties to predict differences in PODs were evaluated by multiregression and mixed-effects modeling using R.

[1] = Cardiomyocyte, 1.5 h, read-out: cm.cam.90min
[2] = Cardiomyocyte, 1.5 h, read-out: cm.mii.90min
[3] = Cardiomyocyte, 1.5 h, read-out: cm.mito.90min
[4] = Cardiomyocyte, 1.5 h, read-out: cm.tc.90min
[5] = Cardiomyocyte, 24 h, read-out: cm.cam.24hrs
[6] = Cardiomyocyte, 24 h, read-out: cm.mii.24hrs
[7] = Cardiomyocyte, 24 h, read-out: cm.mito.24hrs
[8] = Cardiomyocyte, 24 h, read-out: cm.tc.24hrs

Structure (SMILES): Oc1ccccc1-c1ccc(Cl)cc1 [2'-OH PCB3]
- viability at 0.01 µM [1]: 104%
- activity at 0.01 µM [2]: 111%
- activity at 0.01 µM [3]: 104%
- viability at 0.01 µM [4]: 104%
- viability at 0.1 µM [1]: 95.6%
- activity at 0.1 µM [2]: 113%
- activity at 0.1 µM [3]: 95.6%
- viability at 0.1 µM [4]: 95.6%
- viability at 1 µM [1]: 101%
- activity at 1 µM [2]: 101%
- activity at 1 µM [3]: 101%
- viability at 1 µM [4]: 101%
- viability at 10 µM [1]: 102%
- activity at 10 µM [2]: 92.5%
- activity at 10 µM [3]: 102%
- viability at 10 µM [4]: 102%
- viability at 100 µM [1]: 0%
- activity at 100 µM [2]: 32.7%
- activity at 100 µM [3]: 0.07%
- viability at 100 µM [4]: 0.07%
- viability at 0.01 µM [5]: 95.1%
- activity at 0.01 µM [6]: 98.5%
- activity at 0.01 µM [7]: 92.6%
- viability at 0.01 µM [8]: 94.5%
- viability at 0.1 µM [5]: 94.5%
- activity at 0.1 µM [6]: 96%
- activity at 0.1 µM [7]: 91.2%
- viability at 0.1 µM [8]: 94.3%
- viability at 1 µM [5]: 99.7%
- activity at 1 µM [6]: 98.3%
- activity at 1 µM [7]: 96.7%
- viability at 1 µM [8]: 99.8%
- viability at 10 µM [5]: 103%
- activity at 10 µM [6]: 74.7%
- activity at 10 µM [7]: 104%
- viability at 10 µM [8]: 103%
- viability at 100 µM [5]: 0%
- activity at 100 µM [6]: 0%
- activity at 100 µM [7]: 0%
- viability at 100 µM [8]: 0%
- minimal effective concentration (iPSC-CM, 1.5 h, iPSC-CM, read-out: cm.cam.90min POD): 32.8 µM
- minimal effective concentration (iPSC-CM, 1.5 h, iPSC-CM, read-out: cm.mii.90min POD): 9.15 µM
- minimal effective concentration (iPSC-CM, 1.5 h, iPSC-CM, read-out: cm.mito.90min POD): 41.4 µM
- minimal effective concentration (iPSC-CM, 1.5 h, iPSC-CM, read-out: cm.tc.90min POD): 34.5 µM
- minimal effective concentration (iPSC-CM, 24 h, iPSC-CM, read-out: cm.cam.24hrs POD): 40.4 µM
- minimal effective concentration (iPSC-CM, 24 h, iPSC-CM, read-out: cm.mii.24hrs POD): 6.56 µM
- minimal effective concentration (iPSC-CM, 24 h, iPSC-CM, read-out: cm.mito.24hrs POD): 29.8 µM
- minimal effective concentration (iPSC-CM, 24 h, iPSC-CM, read-out: cm.tc.24hrs POD): 35.9 µM

Structure (SMILES): Oc1ccccc1-c1ccc(Cl)cc1 [2'-OH-PCB 3]
- minimal effective concentration (Cardiomyocyte, 1.5 h, cardiomyocytes (cm), cam, 90 min, read-out: POD cm.cam.90min): 32.8 µM
- minimal effective concentration (Cardiomyocyte, 1.5 h, cardiomyocytes (cm), mii, 90 min, read-out: POD cm.mii.90min): 9.15 µM
- minimal effective concentration (Cardiomyocyte, 1.5 h, cardiomyocytes (cm), mito, 90 min, read-out: POD cm.mito.90min): 41.4 µM
- minimal effective concentration (Cardiomyocyte, 1.5 h, cardiomyocytes (cm), tc, 90 min, read-out: POD cm.tc.90min): 34.5 µM
- minimal effective concentration (Cardiomyocyte, 24 h, cardiomyocytes (cm), cam, 24 hrs, read-out: POD cm.cam.24hrs): 40.4 µM
- minimal effective concentration (Cardiomyocyte, 24 h, cardiomyocytes (cm), mii, 24 hrs, read-out: POD cm.mii.24hrs): 6.56 µM
- minimal effective concentration (Cardiomyocyte, 24 h, cardiomyocytes (cm), mito, 24 hrs, read-out: POD cm.mito.24hrs): 29.8 µM
- minimal effective concentration (Cardiomyocyte, 24 h, cardiomyocytes (cm), tc, 24 hrs, read-out: POD cm.tc.24hrs): 35.9 µM

Reference: paper PMC7377239, “Cardiovascular Effects of Polychlorinated Biphenyls and Their Major Metabolites” (Environmental Health Perspectives, 2020)
